Measured values taken from patent US20070128217A1 (priority 2003, published 2007).

What was measured:
[1] = test system: antibodies in sera from SARS patients (sera 1a, 1b, 2, 6, 37, 62, London, SARS-yellow, SARS-green); format: binding, human; design: Binding of serum 6 to linear peptides of protein X1 of SARS-CoV Urbani / Binding of serum 37 to linear peptides of protein X1 of SARS-CoV Urbani / Binding of serum 6 to looped/cyclic peptide (PEPSCAN-ELISA) / Binding of serum 37 to looped/cyclic peptide (PEPSCAN-ELISA) / Binding of serum 37 to looped/cyclic peptides of protein X1 of SARS-CoV Urbani / Binding of serum 6 to linear peptides of protein X2 / Binding of serum 37 to linear peptides of protein X2 / Binding of serum 37 to looped/cyclic peptides of protein X2 of SARS-CoV Urbani / Binding of serum 6 to linear peptides of protein M of SARS-CoV Urbani / Binding of serum 37 to linear peptides of protein M of SARS-CoV Urbani / Binding of serum 6 to looped/cyclic peptides of protein M of SARS-CoV Urbani / Binding of serum 37 to looped/cyclic peptides of protein M of SARS-CoV Urbani / Binding of serum 6 to linear peptides of protein X3 of SARS-CoV Urbani / Binding of serum 37 to linear peptides of protein X3 of SARS-CoV Urbani / Binding of serum 37 to looped/cyclic peptides of protein X3 of SARS-CoV Urbani / Binding of serum 6 to linear peptides of protein X4 of SARS-CoV Urbani / Binding of serum 37 to linear peptides of protein X4 of SARS-CoV Urbani / Binding of serum 37 to looped/cyclic peptides of protein X4 of SARS-CoV Urbani / Binding of serum 6 to linear peptides of protein X5 of SARS-CoV Urbani / Binding of serum 37 to linear peptides of protein X5 of SARS-CoV Urbani / Binding of serum 37 to looped/cyclic peptides of protein X5 of SARS-CoV Urbani / Binding of serum 6 to linear peptides of protein N of SARS-CoV Urbani / Binding of serum 37 to linear peptides of protein N of SARS-CoV Urbani / Binding of serum 6 to linear peptide (PEPSCAN-ELISA) / Binding of serum 1a to looped/cyclic peptides of protein N of SARS-CoV Urbani / Binding of serum 1b to looped/cyclic peptides of protein N of SARS-CoV Urbani / Binding of serum 2 to looped/cyclic peptides of protein N of SARS-CoV Urbani / Binding of serum 6 to looped/cyclic peptides of protein N of SARS-CoV Urbani / Binding of serum 37 to looped/cyclic peptides of protein N of SARS-CoV Urbani / Binding of serum 62 to looped/cyclic peptides of protein N of SARS-CoV Urbani / Binding of serum London to looped/cyclic peptides of protein N of SARS-CoV Urbani / Binding of serum SARS-green to looped/cyclic peptides of protein N of SARS-CoV Urbani: unit not given here
[2] = test system: rabbit serum obtained by immunizing a rabbit with the SARS-CoV strain Frankfurt 1; format: binding; design: Binding of a rabbit serum to linear peptides / Binding of a rabbit serum to looped peptides / Rabbit serum linear peptides / Rabbit serum looped peptides / Binding of a rabbit serum to linear peptides of protein N of SARS-CoV Urbani (Rabbit serum linear peptides) / Binding of a rabbit serum to looped/cyclic peptides of protein N of SARS-CoV Urbani (Rabbit serum looped peptides): unit not given here
[3] = test system: control sera (pooled serum of ten healthy LUMC hospital workers; commercial negative donor pooled serum from the Dutch bloodbank); format: binding, human; design: Binding of Control serum LUMC to linear peptides / Binding of Control serum Blood-bank to linear peptides / Binding of Control serum LUMC to looped peptides / Binding of Control Serum Blood-Bank to Looped peptides / Binding of Control serum LUMC to linear peptides of the protein M of SARS-CoV Urbani / Binding of Control serum Blood-bank to linear peptides of the protein M of SARS-CoV Urbani / Binding of Control serum LUMC to looped peptides of the protein M of SARS-CoV Urbani / Binding of Control Serum Blood-Bank to Looped peptides of the protein M of SARS-CoV Urbani: unit not given here

## LLEQWNLVIGFLFLA
[1]
  Binding of serum 1a to linear peptides of protein M of SARS-CoV Urbani: 0.7
  Binding of serum 1a to looped/cyclic peptides of protein M of SARS-CoV Urbani: 0.5
  Binding of serum 1b to linear peptides of protein M of SARS-CoV Urbani: 0.6
  Binding of serum 1b to looped/cyclic peptides of protein M of SARS-CoV Urbani: 0.2
  Binding of serum 2 to linear peptides of protein M of SARS-CoV Urbani: 0.4
  Binding of serum 2 to looped/cyclic peptides of protein M of SARS-CoV Urbani: 0.4
  Binding of serum 6 to linear peptides of protein M of SARS-CoV Urbani: 0.2
  Binding of serum 6 to looped/cyclic peptides of protein M of SARS-CoV Urbani: 0.4
  Binding of serum 37 to linear peptides of protein M of SARS-CoV Urbani: 0.4
  Binding of serum 37 to looped/cyclic peptides of protein M of SARS-CoV Urbani: 0.4
  Binding of serum 62 to linear peptides of protein M of SARS-CoV Urbani: 0.4
  Binding of serum 62 to looped/cyclic peptides of protein M of SARS-CoV Urbani: 0.4
  Binding of serum London to linear peptides of protein M of SARS-CoV Urbani: 0.3
  Binding of serum London to looped/cyclic peptides of protein M of SARS-CoV Urbani: 0.2
  Binding of serum SARS-green to linear peptides of protein M of SARS-CoV Urbani: 0.3
  Binding of serum SARS-green to looped/cyclic peptides of protein M of SARS-CoV Urbani: 0.2
  Binding of serum SARS-yellow to linear peptides of protein M of SARS-CoV Urbani: 0.2
  Binding of serum SARS-yellow to looped/cyclic peptides of protein M of SARS-CoV Urbani: 0.4
[2]
  Rabbit serum linear peptides: 0.6
  Rabbit serum looped peptides: 0.0
[3]
  Binding of Control Serum Blood-Bank to Looped peptides of the protein M of SARS-CoV Urbani: 0.2
  Binding of Control serum Blood-bank to linear peptides of the protein M of SARS-CoV Urbani: 0.5
  Binding of Control serum LUMC to linear peptides of the protein M of SARS-CoV Urbani: 0.4
  Binding of Control serum LUMC to looped peptides of the protein M of SARS-CoV Urbani: 0.5

## MKIILFLTLIVFTSC
[1]
  Binding of serum 1a to linear peptides of protein X4 of SARS-CoV Urbani: 0.6
  Binding of serum 1a to looped/cyclic peptides of protein X4 of SARS-CoV Urbani: 0.6
  Binding of serum 1b to linear peptides of protein X4 of SARS-CoV Urbani: 0.5
  Binding of serum 1b to looped/cyclic peptides of protein X4 of SARS-CoV Urbani: 0.0
  Binding of serum 2 to linear peptides of protein X4 of SARS-CoV Urbani: 0.4
  Binding of serum 2 to looped/cyclic peptides of protein X4 of SARS-CoV Urbani: 0.5
  Binding of serum 6 to linear peptides of protein X4 of SARS-CoV Urbani: 0.4
  Binding of serum 6 to looped/cyclic peptides of protein X4 of SARS-CoV Urbani: 0.5
  Binding of serum 37 to linear peptides of protein X4 of SARS-CoV Urbani: 0.7
  Binding of serum 37 to looped/cyclic peptides of protein X4 of SARS-CoV Urbani: 0.6
  Binding of serum 62 to linear peptides of protein X4 of SARS-CoV Urbani: 0.7
  Binding of serum 62 to looped/cyclic peptides of protein X4 of SARS-CoV Urbani: 0.5
  Binding of serum London to linear peptides of protein X4 of SARS-CoV Urbani: 0.7
  Binding of serum London to looped/cyclic peptides of protein X4 of SARS-CoV Urbani: 0.2
  Binding of serum SARS-green to linear peptides of protein X4 of SARS-CoV Urbani: 0.4
  Binding of serum SARS-green to looped/cyclic peptides of protein X4 of SARS-CoV Urbani: 0.3
  Binding of serum SARS-yellow to linear peptides of protein X4 of SARS-CoV Urbani: 0.5
  Binding of serum SARS-yellow to looped/cyclic peptides of protein X4 of SARS-CoV Urbani: 0.6
[2]
  Rabbit serum linear peptides: 0.7
  Rabbit serum looped peptides: 0.4
[3]
  Binding of Control Serum Blood-Bank to Looped peptides: 0.6
  Binding of Control serum Blood-bank to linear peptides: 0.6
  Binding of Control serum LUMC to linear peptides: 0.5
  Binding of Control serum LUMC to looped peptides: 0.7

## QLSLLKVTAFQHQNS
[1]
  Binding of serum 1a to linear peptides of protein X2: 0.5
  Binding of serum 1a to looped/cyclic peptides of protein X2 of SARS-CoV Urbani: 0.5
  Binding of serum 1b to linear peptides of protein X2: 0.4
  Binding of serum 1b to looped/cyclic peptides of protein X2 of SARS-CoV Urbani: 0.5
  Binding of serum 2 to linear peptides of protein X2: 0.3
  Binding of serum 2 to looped/cyclic peptides of protein X2 of SARS-CoV Urbani: 0.3
  Binding of serum 6 to linear peptides of protein X2: 0.4
  Binding of serum 6 to looped/cyclic peptides of protein X2 of SARS-CoV Urbani: 0.3
  Binding of serum 37 to linear peptides of protein X2: 0.5
  Binding of serum 37 to looped/cyclic peptides of protein X2 of SARS-CoV Urbani: 0.4
  Binding of serum 62 to linear peptides of protein X2: 0.3
  Binding of serum 62 to looped/cyclic peptides of protein X2 of SARS-CoV Urbani: 0.6
  Binding of serum London to linear peptides of protein X2: 0.3
  Binding of serum London to looped/cyclic peptides of protein X2 of SARS-CoV Urbani: 0.3
  Binding of serum SARS-green to linear peptides of protein X2: 0.1
  Binding of serum SARS-green to looped/cyclic peptides of protein X2 of SARS-CoV Urbani: 0.2
  Binding of serum SARS-yellow to linear peptides of protein X2: 0.1
  Binding of serum SARS-yellow to looped/cyclic peptides of protein X2 of SARS-CoV Urbani: 0.3
[2]
  Binding of a rabbit serum to linear peptides: 0.6
  Binding of a rabbit serum to looped peptides: 0.5
[3]
  Binding of Control Serum Blood-Bank to Looped peptides: 0.5
  Binding of Control serum Blood-bank to linear peptides: 0.4
  Binding of Control serum LUMC to linear peptides: 0.6
  Binding of Control serum LUMC to looped peptides: 0.6

## LIVFTSCELYHYQEC
[1]
  Binding of serum 1a to linear peptides of protein X4 of SARS-CoV Urbani: 0.8
  Binding of serum 1a to looped/cyclic peptides of protein X4 of SARS-CoV Urbani: 0.8
  Binding of serum 1b to linear peptides of protein X4 of SARS-CoV Urbani: 0.8
  Binding of serum 1b to looped/cyclic peptides of protein X4 of SARS-CoV Urbani: 0.6
  Binding of serum 2 to linear peptides of protein X4 of SARS-CoV Urbani: 0.6
  Binding of serum 2 to looped/cyclic peptides of protein X4 of SARS-CoV Urbani: 0.6
  Binding of serum 6 to linear peptides of protein X4 of SARS-CoV Urbani: 0.6
  Binding of serum 6 to looped/cyclic peptides of protein X4 of SARS-CoV Urbani: 0.5
  Binding of serum 37 to linear peptides of protein X4 of SARS-CoV Urbani: 1.0
  Binding of serum 37 to looped/cyclic peptides of protein X4 of SARS-CoV Urbani: 0.7
  Binding of serum 62 to linear peptides of protein X4 of SARS-CoV Urbani: 1.0
  Binding of serum 62 to looped/cyclic peptides of protein X4 of SARS-CoV Urbani: 0.7
  Binding of serum London to linear peptides of protein X4 of SARS-CoV Urbani: 0.8
  Binding of serum London to looped/cyclic peptides of protein X4 of SARS-CoV Urbani: 0.3
  Binding of serum SARS-green to linear peptides of protein X4 of SARS-CoV Urbani: 1.1
  Binding of serum SARS-green to looped/cyclic peptides of protein X4 of SARS-CoV Urbani: 0.5
  Binding of serum SARS-yellow to linear peptides of protein X4 of SARS-CoV Urbani: 0.6
  Binding of serum SARS-yellow to looped/cyclic peptides of protein X4 of SARS-CoV Urbani: 0.6
[2]
  Rabbit serum linear peptides: 0.5
  Rabbit serum looped peptides: 0.5
[3]
  Binding of Control Serum Blood-Bank to Looped peptides: 0.7
  Binding of Control serum Blood-bank to linear peptides: 0.6
  Binding of Control serum LUMC to linear peptides: 0.7
  Binding of Control serum LUMC to looped peptides: 0.8

## PPNVQIHTIDGSSGV
[1]
  Binding of serum 1a to linear peptides of protein X1 of SARS-CoV Urbani: 0.6
  Binding of serum 1a to looped/cyclic peptides of protein X1 of SARS-CoV Urbani: 0.5
  Binding of serum 1b to linear peptides of protein X1 of SARS-CoV Urbani: 0.5
  Binding of serum 1b to looped/cyclic peptides of protein X1 of SARS-CoV Urbani: 0.4
  Binding of serum 2 to linear peptides of protein X1 of SARS-CoV Urbani: 0.4
  Binding of serum 2 to looped/cyclic peptides of protein X1 of SARS-CoV Urbani: 0.3
  Binding of serum 6 to linear peptides of protein X1 of SARS-CoV Urbani: 0.4
  Binding of serum 6 to looped/cyclic peptides of protein X1 of SARS-CoV Urbani: 0.4
  Binding of serum 37 to linear peptides of protein X1 of SARS-CoV Urbani: 0.7
  Binding of serum 37 to looped/cyclic peptides of protein X1 of SARS-CoV Urbani: 0.6
  Binding of serum 62 to linear peptides of protein X1 of SARS-CoV Urbani: 0.6
  Binding of serum 62 to looped/cyclic peptides of protein X1 of SARS-CoV Urbani: 0.5
  Binding of serum London to linear peptides of protein X1 of SARS-CoV Urbani: 0.3
  Binding of serum London to looped/cyclic peptides of protein X1 of SARS-CoV Urbani: 0.2
  Binding of serum SARS-green to linear peptides of protein X1 of SARS-CoV Urbani: 0.3
  Binding of serum SARS-green to looped/cyclic peptides of protein X1 of SARS-CoV Urbani: 0.4
  Binding of serum SARS-yellow to linear peptides of protein X1 of SARS-CoV Urbani: 0.4
  Binding of serum SARS-yellow to looped/cyclic peptides of protein X1 of SARS-CoV Urbani: 0.3
[2]
  Binding of a rabbit serum to linear peptides: 0.1
  Binding of a rabbit serum to looped peptides: 0.5
[3]
  Binding of Control Serum Blood-Bank to Looped peptides: 0.5
  Binding of Control serum Blood-bank to linear peptides: 0.5
  Binding of Control serum LUMC to linear peptides: 0.5
  Binding of Control serum LUMC to looped peptides: 0.7
